Measured values from paper PMC7307922 (Journal of Medicinal Chemistry, 2020).
Converted amounts (≈) assume the structure as drawn.

What was measured:
hFFA3 [1] = molecular target: T1, hFFA3 (Homo sapiens, UniProt O14843); assay: biochemical; settings: for GTPγS pEC50: hFFA3, mean of ≥3 independent experiments ± standard error; for Emax: read-out: GTPγS Emax
T1 sequence (O14843 1-346): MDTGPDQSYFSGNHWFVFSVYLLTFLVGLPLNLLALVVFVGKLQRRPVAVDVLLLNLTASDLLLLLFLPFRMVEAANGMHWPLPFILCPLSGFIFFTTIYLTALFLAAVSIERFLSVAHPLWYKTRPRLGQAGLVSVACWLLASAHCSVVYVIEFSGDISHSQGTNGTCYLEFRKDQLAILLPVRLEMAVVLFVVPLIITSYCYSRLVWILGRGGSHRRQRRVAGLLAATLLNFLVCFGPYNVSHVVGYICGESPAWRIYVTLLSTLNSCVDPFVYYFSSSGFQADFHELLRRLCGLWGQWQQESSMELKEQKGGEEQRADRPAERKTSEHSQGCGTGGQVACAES
Procedure: (§1) The ligands were initially screened in a human FFA3-dependent [^35S]GTPγS binding assay as this assay reflects receptor-mediated activation of Gi/o proteins and is known to generally correlate well with ligand affinity.[30] Analogues of particular interest were tested further in a cAMP inhibition assay as this is an important downstream effect of Gi-activation. […] It is furthermore performed in whole cells, is more downstream, includes G protein signal amplification, and therefore better reflects a more natural ligand–receptor response.
Membranes were isolated from Flp-In T-REx HEK293 cells treated with 100 ng/mL doxycycline to induce receptor expression. Cells were washed with ice-cold phosphate-buffered saline and removed from dishes by scraping before being centrifuged for 5 min at 4 °C, 3000 rpm. Pellets were resuspended in TE buffer (75 mM Tris–HCl, 5 mM EDTA; pH 7.5) with the addition of a protease inhibitor mixture (Roche Applied Science, West Sussex, UK). This was then homogenized with a 5 mL hand-held homogenizer and subsequently centrifuged at 1500 rpm for 5 min at 4 °C, from which the supernatant was collected and further centrifuged at 50 000 rpm for 30 min at 4 °C. The resulting pellet was resuspended in TE buffer, and the protein content was measured using a BCA protein assay kit (Pierce, Fisher Scientific, Loughborough, UK).
Reactions were initiated with the addition of [^35S]GTPγS at 50 nCi per tube; reactions were terminated after 1 h of incubation at 25 °C by rapid filtration through GF/C glass filters using a 24-well Brandel cell harvester (Alpha Biotech, Glasgow, UK). Unbound radioligand was removed from filters by washing three times with ice-cold wash buffer (50 mM Tris–HCl, pH 7.4, and 10 mM MgCl2), and [^35S]GTPγS binding was determined by liquid scintillation spectrometry.

hFFA3 [2] = molecular target: T1, hFFA3; assay: cell-based; settings: for Emax: HEK293, read-out: cAMP Emax; for cAMP pEC50: hFFA3, compound alone, mean of ≥3 independent experiments ± standard error; for increased potency in cAMP assay versus GTPγS assay / lower potency in cAMP assay versus GTPγS assay: cAMP vs GTPγS data; for PAM pEC50: cAMP assay in the presence of 1 μM propionate
Procedure: as §1
HEK293 Flp-In T-Rex cells stably transfected with FFA3-eYFP receptors were incubated overnight with doxycycline to induce expression, then harvested, and cryopreserved. On the day of each experiment, cells were thawed and resuspended in stimulation buffer. Assays were carried out using a 384-well plate format with 3000 cells/well using the CisBio cAMP GS dynamic kit as per manufacturer’s protocol. Compounds were tested for the ability to inhibit 0.3 μM forskolin-induced cAMP production after co-incubation for 1 h. Reactions were measured using a PHERAstar FS plate reader (BMGLabtech, Aylesbury, UK).

[3] = Kinetic aqueous solubility in PBS pH 7.4; assay type: physicochemical; settings: phosphate buffered saline, pH 7.4; read-out: Aq. solub.
Procedure: (§2) Solubility and log D7.4 measurements were performed in accordance to the previously published procedures.[35]

log D7.4 measurement = assay type: physicochemical; settings: pH 7.4; read-out: logD7.4
Procedure: as §2

Structure (SMILES)	GTPγS pEC50 (hFFA3 [1])	Emax (hFFA3 [1]) [%]	Emax (hFFA3 [2]) [%]	cAMP pEC50 (hFFA3 [2])	solubility [3] [µM]	logD at 24 h (log D7.4 measurement)	increased potency in cAMP assay versus GTPγS assay (hFFA3 [2]) [fold]	drop in potency on replacement of o-tolyl (1) (hFFA3 [1]; relative to 1) [fold]	PAM pEC50 (GTPγS assay) (hFFA3 [1]; GTPγS assay, with propionate)	PAM pEC50 (hFFA3 [2])	lower potency in cAMP assay versus GTPγS assay (hFFA3 [2]) [fold]	EC50 (hFFA3 [2]) [µM]
CC1=C(C(=O)Nc2cccc(C)c2)C(c2ccco2)C2=C(CCCC2=O)N1 (stereo not drawn) [Compound 13, 4-(Furan-2-yl)-2-methyl-5-oxo-N-(m-tolyl)-1,4,5,6,7,8-hexahydroquinoline-3-carboxamide]	5.34 ± 0.15	78	100	5.80 ± 0.04	–	–	–	–	–	–	–	–
CCCC1C(C(=O)Nc2cc(OC)ccc2Cl)=C(C)NC2=C1C(=O)CCC2 (stereo not drawn) [Compound 61, N-(2-Chloro-5-methoxyphenyl)-2-methyl-5-oxo-4-propyl-1,4,5,6,7,8-hexahydroquinoline-3-carboxamide]	–	–	96	5.96 ± 0.08	157 (≈ 61.1 µg/mL)	3.07	–	–	–	–	–	–
CC1=C(C(=O)Nc2ccccc2C)C(c2ccoc2)C2=C(CCCC2=O)N1 (stereo not drawn) [Compound 2, reference compound]	5.24 ± 0.08	135	97	6.27 ± 0.03	–	–	10	–	–	–	–	–
CC1=C(C(=O)Nc2cc(Cl)ccc2Cl)C(c2cncs2)C2=C(CCCC2=O)N1 (stereo not drawn) [Compound 48, N-(2,5-Dichlorophenyl)-2-methyl-5-oxo-4-(thiazol-5-yl)-1,4,5,6,7,8-hexahydroquinoline-3-carboxamide]	–	–	97	5.75 ± 0.03	1 (≈ 0.434 µg/mL)	3.23	–	–	–	–	–	–
CC1=C(C(=O)Nc2ccccc2C)C(c2ccc(Br)cc2)C2=C(CCCC2=O)N1 (stereo not drawn) [Compound 7, 4-(4-Bromophenyl)-2-methyl-5-oxo-N-(o-tolyl)-1,4,5,6,7,8-hexahydroquinoline-3-carboxamide]	5.43 ± 0.09	85	103	5.79 ± 0.03	–	–	–	–	–	–	–	–
CC1=C(C(=O)Nc2ccccc2C)C(c2ccccc2)C2=C(CCCC2=O)N1 (stereo not drawn) [Compound 3, 2-Methyl-5-oxo-4-phenyl-N-(o-tolyl)-1,4,5,6,7,8-hexahydroquinoline-3-carboxamide]	4.75 ± 0.11	103	98	5.91 ± 0.04	–	–	14	–	–	–	–	–
CC1=C(C(=O)Nc2ccccc2)C(c2ccco2)C2=C(CCCC2=O)N1 (stereo not drawn) [Compound 12]	5.11 ± 0.12	81	97	5.45 ± 0.03	–	–	–	> 3	–	–	–	–
CC1=C(C(=O)Nc2ccccc2C)C(c2ccc(C)cc2)C2=C(CCCC2=O)N1 (stereo not drawn) [Compound 10, 2-Methyl-5-oxo-N-(o-tolyl)-4-(p-tolyl)-1,4,5,6,7,8-hexahydroquinoline-3-carboxamide]	4.52 ± 0.11	88	97	5.44 ± 0.04	–	–	–	–	–	–	–	–
CC1=C(C(=O)Nc2ccccc2C)C(c2cccc(Br)c2)C2=C(CCCC2=O)N1 (stereo not drawn) [Compound 6, 4-(3-Bromophenyl)-2-methyl-5-oxo-N-(o-tolyl)-1,4,5,6,7,8-hexahydroquinoline-3-carboxamide]	5.49 ± 0.08	89	99	5.87 ± 0.06	–	–	–	–	–	–	–	–
CC1=C(C(=O)Nc2c(F)cccc2F)C(CC(C)C)C2=C(CCCC2=O)N1 (stereo not drawn) [Compound 21, N-(2,6-Difluorophenyl)-4-isobutyl-2-methyl-5-oxo-1,4,5,6,7,8-hexahydroquinoline-3-carboxamide]	4.67 ± 0.22	89	104	4.98 ± 0.08	–	–	–	–	–	–	–	–
CC1=C(C(=O)Nc2ccc(C)cc2)C(c2ccco2)C2=C(CCCC2=O)N1 (stereo not drawn) [Compound 14, 4-(Furan-2-yl)-2-methyl-5-oxo-N-(p-tolyl)-1,4,5,6,7,8-hexahydroquinoline-3-carboxamide]	5.27 ± 0.12	88	100	6.16 ± 0.03	–	–	–	–	–	–	–	–
Cc1ccccc1NC(=O)c1c(C)nc2c(c1-c1ccco1)C(=O)CCC2 [Compound 24, 4-(Furan-2-yl)-2-methyl-5-oxo-N-(o-tolyl)-5,6,7,8-tetrahydroquinoline-3-carboxamide]	–	–	–	inactive and nr^c	–	–	–	–	nr^c,d	–	–	–
CC1=C(C(=O)Nc2ccccc2C)C(c2ccc(C(F)(F)F)cc2)C2=C(CCCC2=O)N1 (stereo not drawn) [Compound 9, 2-Methyl-5-oxo-N-(o-tolyl)-4-(4-(trifluoromethyl)phenyl)-1,4,5,6,7,8-hexahydroquinoline-3-carboxamide]	5.12 ± 0.13	116	101	5.31 ± 0.06	–	–	–	–	–	–	–	–
CC1=C(C(=O)Nc2ccccc2Cl)C(CC(C)C)C2=C(CCCC2=O)N1 (stereo not drawn) [Compound 20, N-(2-Chlorophenyl)-4-isobutyl-2-methyl-5-oxo-1,4,5,6,7,8-hexahydroquinoline-3-carboxamide]	5.41 ± 0.13	105	94	6.15 ± 0.06	–	–	–	–	–	–	–	–
CC1=C(C(=O)Nc2ccccc2C)C(CC(C)C)C2=C(CCCC2=O)N1 (stereo not drawn) [Compound 17, 4-Isobutyl-2-methyl-5-oxo-N-(o-tolyl)-1,4,5,6,7,8-hexahydroquinoline-3-carboxamide]	5.68 ± 0.13	109	109	5.00 ± 0.06	–	–	–	–	–	6.28 ± 0.14	5	–
CC1=C(C(=O)Nc2cccc(C)c2C)C(CC(C)C)C2=C(CCCC2=O)N1 (stereo not drawn) [Compound 18, N-(2,3-Dimethylphenyl)-4-isobutyl-2-methyl-5-oxo-1,4,5,6,7,8-hexahydroquinoline-3-carboxamide]	5.26 ± 0.16	88	97	4.98 ± 0.11	–	–	–	–	–	–	2	–
CCc1ccc(C2C(C(=O)Nc3ccccc3C)=C(C)NC3=C2C(=O)CCC3)cc1 (stereo not drawn) [Compound 11, 4-(4-Ethylphenyl)-2-methyl-5-oxo-N-(o-tolyl)-1,4,5,6,7,8-hexahydroquinoline-3-carboxamide]	4.08 ± 0.26	143	96	5.17 ± 0.08	–	–	–	–	–	–	–	–
CC1=C(C(=O)Nc2ccccc2C)C(c2cccc(C(F)(F)F)c2)C2=C(CCCC2=O)N1 (stereo not drawn) [Compound 8, 2-Methyl-5-oxo-N-(o-tolyl)-4-(3-(trifluoromethyl)phenyl)-1,4,5,6,7,8-hexahydroquinoline-3-carboxamide]	4.81 ± 0.13	118	98	5.55 ± 0.05	–	–	–	–	–	–	–	–
COc1ccccc1NC(=O)C1=C(C)NC2=C(C(=O)CCC2)C1c1ccco1 (stereo not drawn) [Compound 15, 4-(Furan-2-yl)-N-(2-methoxyphenyl)-2-methyl-5-oxo-1,4,5,6,7,8-hexahydroquinoline-3-carboxamide]	4.71 ± 0.28	124	99	6.43 ± 0.03	–	–	50	–	–	–	–	–
CC1=C(C(=O)Nc2ccccc2C)C(c2cccs2)C2=C(CCCC2=O)N1 (stereo not drawn) [Compound 4, 2-Methyl-5-oxo-4-(thiophen-2-yl)-N-(o-tolyl)-1,4,5,6,7,8-hexahydroquinoline-3-carboxamide]	5.52 ± 0.18	111	102	5.79 ± 0.04	–	–	–	–	–	5.92 ± 0.04	–	–
CC1=C(C(=O)Nc2ccccc2I)C(CC(C)C)C2=C(CCCC2=O)N1 (stereo not drawn) [Compound 19, N-(2-Iodophenyl)-4-isobutyl-2-methyl-5-oxo-1,4,5,6,7,8-hexahydroquinoline-3-carboxamide]	5.41 ± 0.15	129	89	–	–	–	–	–	–	–	–	2.69
